Laboratory results: patent US11077163B2, “Peptide for treating ocular diseases and composition for treating ocular diseases comprising same” (GemVax & KAEL CO., LTD., priority 2015, dated 2021)

Key:
Type in all cases: in vivo, Brown Norway rats
[1] = tested on: laser-induced choroidal neovascularization (CNV); assay: CNV thickness by optical coherence tomography (OCT) in laser-induced CNV animal model; conditions: subcutaneous once a day
From the text: Brown Norway rats were anesthetized, and pupils of the eyes were dilated using 0.5% phenylephrine (pupillary dilatation). The target rats having the dilated pupils of the eyes were irradiated with a 577 nm laser (577 nm, diode, 10 μm, 0.05 seconds) 6 to 8 times per eye to cause neovascularization in the choroid. Upon laser irradiation, the eyes were covered with a cover glass, and the rupture of Bruch's membranes was confirmed from the fact that bubbles occurred during irradiation with lasers using a slit lamp delivery system. In a laser-induced CNV […] model, the rats were randomized to experimental groups in which the peptide pep1 prepared by the method disclosed in Example 1 was administered at three doses of 0.1, 1, and 10 nM, and the control (vehicle) in which pep1 was not administered, and a drug was subcutaneously administered to the rats once a day for a period of time starting from the day before 3 days of laser irradiation to 2 weeks after the laser irradiation. To compare the CNV activities between various groups, a Kruskal-Wallis test was used. […] The groups in which pep1 was administered and the control complied with the experimental groups disclosed in Example 2, and the thicknesses of all lesions in each of the groups were measured to check whether there was a difference in CNV thicknesses between the groups.

[2] = tested on: laser-induced choroidal neovascularization (CNV); assay: CNV area by isolectin staining of retinal pigment epithelium-choroid-sclera tissues in laser-induced CNV animal model; conditions: subcutaneous once a day, isolectin-stained area at 2 weeks after laser
From the text: Brown Norway rats were anesthetized, and pupils of the eyes were dilated using 0.5% phenylephrine (pupillary dilatation). The target rats having the dilated pupils of the eyes were irradiated with a 577 nm laser (577 nm, diode, 10 μm, 0.05 seconds) 6 to 8 times per eye to cause neovascularization in the choroid. Upon laser irradiation, the eyes were covered with a cover glass, and the rupture of Bruch's membranes was confirmed from the fact that bubbles occurred during irradiation with lasers using a slit lamp delivery system. […] An area of tissues stained with isolectin specific to vascular endothelial cells was measured to determine CNV areas in the control and the groups in which pep1 was administered. The groups in which pep1 was administered and the control complied with the experimental groups disclosed in Example 2, and the thicknesses of all lesions in each of the groups were measured to check whether there was a difference in CNV areas between the groups.

[3] = tested on: laser-induced choroidal neovascularization (CNV); assay: Angiographic leakage in the choroid by fluorescein angiography (FAG) in laser-induced CNV animal model; conditions: subcutaneous once a day, FAG at 2 weeks after laser
From the text: Brown Norway rats were anesthetized, and pupils of the eyes were dilated using 0.5% phenylephrine (pupillary dilatation). The target rats having the dilated pupils of the eyes were irradiated with a 577 nm laser (577 nm, diode, 10 μm, 0.05 seconds) 6 to 8 times per eye to cause neovascularization in the choroid. Upon laser irradiation, the eyes were covered with a cover glass, and the rupture of Bruch's membranes was confirmed from the fact that bubbles occurred during irradiation with lasers using a slit lamp delivery system. In a laser-induced CNV […] model, the rats were randomized to experimental groups in which the peptide pep1 prepared by the method disclosed in Example 1 was administered at three doses of 0.1, 1, and 10 nM, and the control (vehicle) in which pep1 was not administered, and a drug was subcutaneously administered to the rats once a day for a period of time starting from the day before 3 days of laser irradiation to 2 weeks after the laser irradiation. To compare the CNV activities between various groups, a Kruskal-Wallis test was used. In this case, the comparison between two groups was performed using a Mann-Whitney U test. A p value was considered to be statistically significant when the p value was less than 0.05. After CNV was induced with lasers, the rats in the groups in which pep1 was administered and the rats in the control were anesthetized after the elapse of 2 weeks, and a contrast medium was intraperitoneally injected at a dose of 0.1 mL (10% fluorescein disodium salt). Levels of angiographic leakage in the choroid between the control and the groups in which pep1 was administered were compared using fluorescein angiography (FAG). The groups in which pep1 was administered and the control complied with the experimental groups disclosed in Example 2, and the leakage levels at all lesions in each of the groups were measured to check whether there was a difference in angiographic leakage in the choroid between the groups. […]

EARPALLTSRLRFIPK (listed as Homo sapiens) [pep1, telomerase-derived peptide of 16 amino acids, location [611-626] on human telomerase]
CNV thickness compared to the control ([1]; all groups 0.1, 1 and 10 nM, from 3 days before to 2 weeks after laser irradiation, OCT at 2 weeks): statistically significantly reduced
CNV thickness compared to the control ([1]; group at 1 nM, OCT at 2 weeks after laser): most drastically reduced
CNV area compared to the control ([2]; all groups 0.1, 1 and 10 nM): statistically significantly reduced
CNV area compared to the control ([2]; group at 1 nM): most drastically reduced
angiographic leakage level compared to the control ([3]; all groups 0.1, 1 and 10 nM): reduced
ratio of lesions with Grade 2B (clinically severe leakage level) compared to the control ([3]; all groups 0.1, 1 and 10 nM): reduced
ratio of lesions with Grade 2B (clinically severe leakage level) compared to the control ([3]; groups at 1 and 10 nM): drastically reduced
